Laboratory results: patent US20240252456A1, “ORAL COMPOSITION, SKIN COSMETIC AND HAIR COSMETIC” (MARUZEN PHARMACEUTICALS CO., LTD., priority 2021, published 2024)

System: cyclic AMP phosphodiesterase
Experiment: Cyclic AMP phosphodiesterase activity inhibitory action test
Type: biochemical
Method: To 0.2 mL of 50 mmol/L Tris-HCl buffer solution (pH 7.5) containing 5 mmol/L magnesium chloride, 0.1 mL of 2.5 mg/mL bovine serum albumin solution, 0.1 mL of 0.1 mg/mL cyclic AMP phosphodiesterase solution, and 0.05 mL of the test sample solution (Sample 1, see Table 2 below for final concentration) were added, and the mixture was statically placed at 37° C. for 5 minutes. Then, 0.05 mL of 0.5 mg/mL cyclic AMP solution was added, and the mixture was reacted at 37° C. for 60 minutes. After the reaction was completed, the reaction was stopped by boiling in a boiling water bath for 3 minutes, and then centrifugal separation was applied (2260×g, 10 minutes, 4° C.). Cyclic AMP, a reaction substrate in the supernatant, was analyzed under the following high-performance liquid chromatography conditions. In addition, as a control, the same operation was performed by adding only the solvent to which no sample was added.
• Product name: Chromatocorder 12 (available from SYSTEM INSTRUMENTS) • Stationary phase: Wakosil C18-ODS 5 μm (available from FUJIFILM Wako Pure Chemical Corporation) • Column length: 250 mm • Mobile phase: 1 mmol/L TBAP in 25 mmol/L KH2PO4: CH3CN=90:10 • Mobile phase flow rate: 1.0 mL/min • Detection: 260 nm
Then, a peak area (A) of a cyclic AMP standard product, a peak area (B1) of the supernatant reaction solution of the cyclic AMP standard product and the cyclic AMP phosphodiesterase when no sample was added, and a peak area (B2) of the supernatant reaction solution of the cyclic AMP standard product and the cyclic AMP phosphodiesterase when the test sample was added were obtained. From the obtained results, a decomposition rate (C) of the cyclic AMP standard product when no sample was added and a decomposition rate (D) of the cyclic AMP standard product when the test sample was added were calculated using the following equations.
After that, the cyclic AMP phosphodiesterase activity inhibition rate (%) was calculated from the following equation based on each decomposition rate (C, D) calculated from the above equations.

O=C(O)CCc1ccc(O)c(O)c1 [Sample 1, 3,4-Dihydroxyhydrocinnamic acid]
cAMP phosphodiesterase activity inhibition rate (500 μmol/L): 42.0%
cAMP phosphodiesterase activity inhibition rate (1000 μmol/L): 46.8%
cAMP phosphodiesterase activity inhibition rate (2000 μmol/L): 55.3%
